Experiments:
Conditions in all cases: main component drawn
S. pneumoniae D39V = test: Bliss interaction score (quartile over a dose matrix) (fitness difference); higher = more antagonism (negative = synergy)
Outline: (§1)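 Fitness is OD595 at stationary-phase entry relative to the plate's robust no-drug mean, capped at 1. Single-drug fitness was inferred from combinations. The Bliss score is observed minus product-expected fitness, summarised by quartiles over technical, biological and donor/recipient replicates.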

S. aureus Newman [1] = test: as above
Outline: as §1

B. subtilis 168 [2] = test: as above
Outline: as §1

S. aureus DSM 20231 = test: as above
Outline: as §1

S. aureus Newman [3] = test: fitness (endpoint OD595 vs no drug) (fraction); higher = more growth
Outline: (§2)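 Volumes were 30 µl per well, or 55 µl for S. pneumoniae, in 384-well plates inoculated at OD595 0.01. Media were TSB, LB Lennox or CY at 37 °C, and OD595 was read every 30 min for 14 h with first-reading background subtraction. Fitness is the ratio of optical density at stationary-phase entry to the robust mean of no-drug controls. That ratio is capped at 1.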

B. subtilis 168 [4] = test: as above
Outline: as §2
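For Bliss interaction score (quartile over a dose matrix) in this document: first quartile when negative (synergy) and third quartile when positive (antagonism).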

CC[C@H](C)[C@H](N)C1=N[C@H](C(=O)N[C@@H](CC(C)C)C(=O)N[C@H](CCC(=O)O)C(=O)N[C@H](C(=O)N[C@H]2CCCCNC(=O)[C@H](CC(N)=O)NC(=O)[C@@H](CC(=O)O)NC(=O)[C@H](Cc3cnc[nH]3)NC(=O)[C@@H](Cc3ccccc3)NC(=O)[C@H]([C@@H](C)CC)NC(=O)[C@@H](CCCN)NC2=O)[C@@H](C)CC)CS1 [Bacitracin] + CO/N=C(\C(=O)N[C@@H]1C(=O)N2C(C(=O)O)=C(COC(C)=O)CS[C@H]12)c1csc(N)n1 [Cefotaxime]
Conditions	Bliss interaction score
B. subtilis 168 [2]	-0.1
S. aureus DSM 20231	-0.0827
S. aureus Newman [1]	-0.1
S. pneumoniae D39V	-0.0668

fitness
Conditions	partner 0.078 µg/mL	partner 0.156 µg/mL	partner 0.312 µg/mL	partner 0.5 µg/mL	partner 0.625 µg/mL	partner 1 µg/mL	partner 1.25 µg/mL	partner 2 µg/mL	partner 2.5 µg/mL
B. subtilis 168 [4], first compound 37.5 µg/mL	–	–	–	0.274	–	0.137	–	0.134	–
B. subtilis 168 [4], first compound 75 µg/mL	–	–	–	0.202	–	0.0939	–	0.0639	–
B. subtilis 168 [4], first compound 150 µg/mL	–	–	–	0.0854	–	0.0162	–	0.0303	–
S. aureus Newman [3], first compound 18.75 µg/mL	0.465	0.0868	0.0343	–	0.0178	–	0.0266	–	0.0285
S. aureus Newman [3], first compound 37.5 µg/mL	0.0257	0.0132	0.0259	–	0.0287	–	0.0203	–	0.0237
S. aureus Newman [3], first compound 75 µg/mL	0.0416	0.031	0.0324	–	0.0342	–	0.0412	–	0.0372

fitness, B. subtilis 168 [4], one replicate
Conditions	partner 0.00775 µg/mL	partner 0.0155 µg/mL	partner 0.031 µg/mL	partner 0.0625 µg/mL	partner 0.125 µg/mL	partner 0.25 µg/mL
first compound 37.5 µg/mL	0.831	0.724	0.52	0.479	0.314	0.297
first compound 75 µg/mL	0.749	0.521	0.342	0.257	0.12	0.111
first compound 150 µg/mL	0.326	0.035	0	0.0561	0.0401	0.0433

CC[C@H](C)[C@H](N)C1=N[C@H](C(=O)N[C@@H](CC(C)C)C(=O)N[C@H](CCC(=O)O)C(=O)N[C@H](C(=O)N[C@H]2CCCCNC(=O)[C@H](CC(N)=O)NC(=O)[C@@H](CC(=O)O)NC(=O)[C@H](Cc3cnc[nH]3)NC(=O)[C@@H](Cc3ccccc3)NC(=O)[C@H]([C@@H](C)CC)NC(=O)[C@@H](CCCN)NC2=O)[C@@H](C)CC)CS1 [Bacitracin] + CC(C1CCC(C(O1)OC2C(CC(C(C2O)OC3C(C(C(CO3)(C)O)NC)O)N)N)N)NC [Gentamicin]
Conditions	Bliss interaction score
B. subtilis 168 [2]	-0.298
S. aureus DSM 20231	-0.0565
S. aureus Newman [1]	0.102
S. pneumoniae D39V	-0.149

fitness
Conditions	first compound 18.75 µg/mL	first compound 37.5 µg/mL	first compound 75 µg/mL	first compound 150 µg/mL
B. subtilis 168 [4], partner 0.125 µg/mL	–	–	–	0.0432
B. subtilis 168 [4], partner 0.25 µg/mL	–	0.0865	0.0452	0.0472
S. aureus Newman [3], partner 0.375 µg/mL	0.591	0.122	0.0738	–
S. aureus Newman [3], partner 0.5 µg/mL	0.759	0.625	0.0785	–
S. aureus Newman [3], partner 0.75 µg/mL	0.461	0.137	0.0623	–
S. aureus Newman [3], partner 1 µg/mL	0.803	–	0.0125	–
S. aureus Newman [3], partner 1.5 µg/mL	–	0.163	0.0666	–
S. aureus Newman [3], partner 2 µg/mL	0.842	–	0.0163	–
